From patent EP1074259A1, “PREVENTIVES FOR ALCOHOLIC GASTRITIS” (CHUGAI SEIYAKU KABUSHIKI KAISHA, priority 1998, dated 1999)

Test system: ethanol-induced gastric mucosal injury
Test: Prevention of 99.5% ethanol-induced gastric mucosal injury in rats
Type: in vivo
Settings: for Mucosal injury suppression rate (%): 1 h before 99.5% ethanol 1 ml/animal, n = 10/group
Procedure: Rats were forced to abstain from food and water for 24 hours, and used as experimental subjects. […] When the two drugs were combined, the dose of the combination treatment was set such that the proportion of sucralfate was 1/3 of the dose, and the proportion of famotidine was 2/3 of the dose, or vice versa (i.e., the proportion of sucralfate was 2/3 of the dose, and the proportion of famotidine was 1/3 of the dose). For each of the individual treatments and the combination treatments, a high dose group, a medium dose group, and a low dose group were provided by setting a high dose, a medium dose, and a low dose at a ratio of 9:3:1. Each dose level of the drug was suspended in a 2% aqueous solution of acacia. The suspension was orally administered in a volume of 2 ml/kg body weight, while only the solvent was administered in the same volume for a control group. […] One hour after administration of the test drug, 99.5% ethanol in an amount of 1 ml/animal was administered orally. One hour later, the animal subjects were sacrificed and the stomach removed, treated, and measured for the extent of injuries occurring in the gastric mucosa. The total amount of injuries occurring In the respective animals was calculated to determine the ED50 values for the preventive effect of the test drug on gastric mucosal injury. […]

Compound: NC(N)=Nc1nc(CSCCC(N)=NS(N)(=O)=O)cs1 [Famotidine, famotidine]
- ED50 (Rattus norvegicus, po, drug administered alone, P.O., rats, read-out: 50% preventive dose ED50): 46.3 mg/kg
- Mucosal injury suppression rate (%) (famotidine alone 10 mg/kg P.O.): 13%
- Mucosal injury suppression rate (%) (famotidine alone 30 mg/kg P.O.): 42%
- Mucosal injury suppression rate (%) (famotidine alone 90 mg/kg P.O.): 66%

Compound: sucralfate
- 50% preventive dose ED50 (mg/kg) (drug administered alone, P.O., rats): Sucralfate 21.4 mg/kg
- Mucosal injury suppression rate (%) (sucralfate alone 10 mg/kg P.O.): 19%
- Mucosal injury suppression rate (%) (sucralfate alone 30 mg/kg P.O.): 69%
- Mucosal injury suppression rate (%) (sucralfate alone 90 mg/kg P.O.): 92%
